The record followed here is ChEMBL document CHEMBL3508140 (2016).

Series [1] is described as follows: (§1) Urinary elimination of 4'-epiadriamycinol following intravenous bolus 4'-epiadriamycin at 10 mg.Kg-1 dose in rat. In kind it is ADME, organism-based, SD, Urine. The settings on record: in vivo.
A short description of series [2]: Urinary excretion of epirubicinol following epirubicin at 60 mg.m-2 dose in cancer patients. In kind it is ADME, organism-based, Urine. The settings on record: human, in vivo; at 60 mg/m2.
The nature of series [3]: Recovery of epirubicinol following intraperitoneal epirubicin at 4 mg.Kg-1 dose in hamster. In kind it is ADME, organism-based, Cricetulus griseus, Plasma. The settings on record: chinese hamster, in vivo, ip.
A short description of series [4]: Urinary excretion of epirubicinol following epirubicin at 60-150 mg.m-2 dose in cancer patients. In kind it is ADME, organism-based, Urine. The settings on record: human, in vivo.
Series [5] can be described thus: Detection of epirubicinol in plasma following single intravenous epirubicin at 10 mg.Kg-1 dose in female mouse bearing colon tumor. In kind it is ADME, organism-based, BALB/c. The conditions noted are these: in vivo.
The nature of series [6]: AUC values (0-48 h) of epirubicinol in heart following single intravenous epirubicin at 10 mg.Kg-1 dose in female mouse bearing colon tumor. In kind it is ADME, organism-based, BALB/c. The settings on record: in vivo.
Series [7] is described as follows: Detection of epirubicinol in heart following single intravenous epirubicin at 10 mg.Kg-1 dose in female mouse bearing colon tumor. In kind it is ADME, organism-based, BALB/c. The settings on record: in vivo.
Series [8] is described as follows: (§2) Urinary excretion of epirubicinol following epirubicin at 50 mg.m-2 dose in cancer patients. The settings on record: human, in vivo; at 50 mg/m2. In kind it is ADME, organism-based, Urine.
Series [9] can be described thus: AUC values (0-48 h) of epirubicinol in tumor following single intravenous epirubicin at 10 mg.Kg-1 dose in female mouse bearing colon tumor. In kind it is ADME, organism-based, BALB/c, Neoplasm. The settings on record: in vivo.
The nature of series [10]: as §1. In kind it is ADME, organism-based, SD, Urine. The conditions noted are these: in vivo. The source holds these as a separate data set.
Series [11] is described as follows: Recovery of epirubicinol following intraperitoneal epirubicin at 4 mg.Kg-1 dose in mouse. In kind it is ADME, organism-based, CD-1, Plasma. The settings on record: in vivo, ip.
Series [12] is described as follows: Biliary excretion of epirubicinol following epirubicin at 50 mg.m-2 dose in cancer patients. In kind it is ADME, organism-based, Bile. The settings on record: human, in vivo; at 50 mg/m2.
Series [13] is described as follows: Recovery of epirubicinol following intravenous epirubicin at 1.5 mg.Kg-1 dose in man. In kind it is ADME, organism-based, Plasma. The conditions noted are these: human, in vivo.
Series [14] can be described thus: AUC(0-24 h) of epirubicinol following intravenous epirubicin at 1 mg.Kg-1 dose in rabbit. In kind it is ADME, organism-based, Oryctolagus cuniculus, New Zealand White, Plasma. The conditions noted are these: in vivo.
Series [15] in a line: Detection of epirubicinol in tumor following single intravenous epirubicin at 10 mg.Kg-1 dose in female mouse bearing colon tumor. In kind it is ADME, organism-based, BALB/c, Neoplasm. The settings on record: in vivo.
A short description of series [16]: as §2. In kind it is ADME, organism-based, Urine. The settings on record: human, in vivo; at 50 mg/m2. The source holds these as a separate data set.
Series [17] is described as follows: Urinary excretion of epirubicinol following epirubicin at 75-90 mg.m-2 dose in cancer patients. In kind it is ADME, organism-based, Urine. The conditions noted are these: human, in vivo.
Series [18] in a line: AUC(0-24 h) of epirubicinol following intravenous epirubicin at 3 mg.Kg-1 dose in rabbit. In kind it is ADME, organism-based, Oryctolagus cuniculus, New Zealand White, Plasma. The conditions noted are these: in vivo.
Series [19] is described as follows: Recovery of epirubicinol following intravenous epirubicin at 4 mg.Kg-1 dose in rabbit. In kind it is ADME, organism-based, Oryctolagus cuniculus, New Zealand White, Plasma. The conditions noted are these: in vivo.
A short description of series [20]: Recovery of epirubicinol following intravenous epirubicin at 4 mg.Kg-1 dose in rat. In kind it is ADME, organism-based, SD, Plasma. The conditions noted are these: in vivo.
The nature of series [21]: AUC values (0-48 h) of epirubicinol in plasma following single intravenous epirubicin at 10 mg.Kg-1 dose in female mouse bearing colon tumor. The conditions noted are these: in vivo. In kind it is ADME, organism-based, BALB/c.
Series [22] can be described thus: as §1. In kind it is ADME, organism-based, SD, Urine. The settings on record: in vivo. The source holds these as a separate data set.

As to `COc1cccc2c1C(=O)c1c(O)c3c(c(O)c1C2=O)C[C@@](O)(C(O)CO)C[C@@H]3O[C@H]1C[C@H](N)[C@@H](O)[C@H](C)O1` (some centres not stated), the Compound recovery in [1] is on record as 0.024%; in series [2], 0.9%; in [3], 3.3 10^-9M; in [4], 0.5%; in series [5], “OUTCOME = Observed”; in [7], “OUTCOME = Observed”. For the same molecule, the Compound recovery is reported as 0.6% in series [8]; 0.03% in series [10]; 0.2 10^-9M in series [11]; 6.5% in series [12]; 15 10^-9M in [13]; “OUTCOME = Not detected/not observed” in [15]. The Compound recovery was 4.1% in series [16]; 0.8% in [17]; 23 10^-9M in series [19]; 0.4 10^-9M in series [20]; 0.044% in series [22]. The AUC in series [6] was 46 nmol·min/g; in [9], 0 nmol·min/g; in series [14] it was 69.46 ng·h/mL; in [18] it was 204.86 ng·h/mL; in [21], 0.5 nmol·min/mL.
